Results: a melting point compilation (Tetko et al.; mined from patent text by program, amines drawn as free bases though some values may be those of a salt)

Row | SMILES | melting point
1 | CCc1cc(OCc2ccc(C(=O)NS(=O)(=O)c3ccccc3C)cc2)c(C(=O)OC)c(CC)n1 | 175 to 176 °C
2 | O=C(c1ccccc1C(c1ccc(O)cc1)c1ccc(O)cc1)N1CCCCC1 | 242 to 244 °C
3 | C=C1c2[nH]c3ccc(OC)cc3c2CCN1C=O | 180 to 181 °C
4 | COc1ccc(S(=O)(=O)N[C@@H](C(=O)OCc2ccccc2)C(C)C)cc1 | 92 to 94 °C
5 | NS(=O)(=O)c1ccc(-n2nc(C(F)(F)F)cc2-c2ccc(-c3ccco3)cc2)c(Cl)c1 | 190 °C
6 | CNC(=O)c1cc2c(c(F)c1F)N(c1ccc(I)cc1C)COC2=O | 219 to 223 °C
7 | COc1c(Cl)ccc(C(=O)O)c1SC | 98 to 99 °C
8 | NC(=O)c1cc(-c2ccc(F)cc2)ccc1O | 206 to 207 °C
9 | COCCCNCc1ccc(-c2cc3ncnc(Nc4ccc5[nH]ccc5c4)c3s2)cc1 | 160 to 175 °C
10 | CCC(C)c1c(O)ccc2c1oc1ccc(C#N)cc12 (stereo not drawn) | 206 to 207 °C
11 | O=C(O)c1cccc(C=CC(=O)c2ccccc2)c1 | 198 to 201 °C
12 | CNC(=O)c1c(NC(=O)c2cc(C(F)(F)F)nn2-c2ncccc2Cl)ccc2cn[nH]c12 | 190 to 192 °C
13 | O=P(O)(O)CCCCCCCCCCCCCCCCCCCCCCC(F)(F)C(F)(F)C(F)(F)C(F)(F)F | 106 to 108 °C
14 | Cc1ccc(S(=O)(=O)CNc2ccc(C(F)(F)F)cc2)cc1 | 135 °C
15 | Cn1c(-c2ccc(-c3ccccn3)cc2)c(C(=O)N2CCC(OCC(=O)O)CC2)c(=O)n1-c1ccc(C#N)cc1 | 156 to 159 °C
16 | COc1cc2c(cc1OCc1ccccc1)CCCC(C(=O)N1CCN(C(=O)c3cc(OC)c(OC)c(OC)c3)CC1)=C2 | 140 to 142 °C
17 | CC(=O)N(C(=O)OC(C)(C)C)c1ccc(-c2nc3n(Cc4c(F)cccc4F)cc(-c4ccccc4)c(=O)n3c2C)cc1 | 220 to 222 °C
18 | COc1ccc(-n2ccnc2)cc1C(O)c1c(C)cc(C)cc1C (stereo not drawn) | 187 to 188 °C
19 | CCOC(=O)CNC(=O)c1cc(C(=O)c2ccccc2Cl)c(N)s1 | 216 to 218 °C
20 | CNC[C@@H]1c2ccccc2Oc2ccc(Cl)cc2[C@H]1C(=O)O (relative stereo) | 154 °C
21 | COCc1cc(O[C@@H]2c3ccccc3C[C@H]2O)c2nc(C)c(C)n2c1 (relative stereo) | 142 to 143 °C
22 | COc1ccc(N2CCN(c3ccc(-n4cnnc4SC)cc3)CC2)cc1 | 180 °C
23 | O=S1(=O)N=CN(C2CCCCC2)c2cc(Cl)c(Cl)cc21 | 219 to 222 °C
24 | Cc1nc(C)c(-c2ccnc(Nc3cccc(CN)c3)n2)s1 | 183 to 184 °C
25 | Cc1cc(C)nc(N(C=O)c2ccccc2)n1 | 134 to 135 °C

Row | SMILES | melting point
26 | Cn1cc(-c2cc3cccnc3[nH]2)c2cc(C(=O)NCCC(N)=O)ccc21 | 286 to 288 °C
27 | CC(c1oc2ccccc2c(=O)c1-c1cccc(F)c1)n1nc(-c2ccc(O)c(F)c2)c2c(N)ncnc21 (stereo not drawn) | 244 to 247 °C
28 | Cn1c(=O)c(S(C)(=O)=O)c(N2CCN(C(=O)c3cccs3)CC2)c2ccccc21 | 224 °C
29 | O=c1cc(C(F)(F)F)c2ccc(NCc3ccccc3)cc2o1 | 136 to 137 °C
30 | Cc1cc(C)n(C(=O)C(Cc2ccccc2)NS(=O)(=O)c2ccc(Cl)cc2)n1 (stereo not drawn) | 137 to 138 °C
31 | CC(=O)c1cccc(-c2ccc(OC3SCC(O)C(O)C3O)cn2)c1 (stereo not drawn) | 159 to 163 °C
32 | CCC1CC(=O)c2c(NC(=O)C(=O)O)ccc(C)c21 (stereo not drawn) | 176 to 177 °C
33 | O=C(c1ccccc1)c1ccc([N+](=O)[O-])c(C(=O)O)c1 | 169 °C
34 | CCOC(=O)CCCc1oc(-n2ccnc2C)nc1-c1ccc(Cl)cc1 | 72 to 73 °C
35 | N#CC1CCc2c(OCCn3ccnc3)cccc21 (stereo not drawn) | 115 to 117 °C
36 | CCOC(=O)c1cc2c(OCC(O)CNC(C)C)cc(C)cc2[nH]1 (stereo not drawn) | 163 to 165 °C
37 | COc1ccc(C(=O)Nc2ccccc2)cc1NCc1ccccc1C | 167 to 169 °C
38 | COc1ccc(Nc2nc(NC3CCCCCC3)nc(Oc3ccccc3C#CC(C)(C)O)n2)cc1Cl | 150 to 158 °C
39 | COc1ccc(C2CCOCC2)c2sc(NC(=O)c3ccnc(CN4CCOCC4)c3)nc12 | 199 to 201 °C
40 | CC[C@H](N)C(=O)N1c2ccccc2C[C@H]1C(=O)NC | 138 to 139 °C
41 | OCc1ccc(O)c(CO)c1CNCCCCCCOCC1CCCCC1 | 72 to 74 °C
42 | CCCCNS(=O)(=O)c1cc(C(=O)O)cc([N+](=O)[O-])c1Cl | 199 to 201 °C
43 | c1ccc(Sc2cc(Sc3ccccc3)c3ccc4c(Sc5ccccc5)cc(Sc5ccccc5)c5ccc2c3c54)cc1 | 230 °C
44 | CCCOC(=O)c1ccc(OC(=O)CCCC(=O)Oc2ccc(C(=O)OCCC)cc2)cc1 | 74 to 75 °C
45 | NC(CC(=O)NC1CC1)C1CC1 (stereo not drawn) | 116 to 118 °C
46 | CCc1cc(S(=O)(=O)c2ccc(N)cc2)cc(N2CCCC2)n1 | 154 to 155 °C
47 | c1ccc(CN(Cc2ccccc2)c2c(-c3ccccc3)sc3ccccc23)cc1 | 92 to 93 °C
48 | Cc1ccc(-c2[nH]c3c(Br)cc(Br)cc3c(=O)c2Cc2ccncc2)cc1 | 206 to 208 °C
49 | CCOC(=O)CCC(=NOCc1ccc(OCc2nc(-c3ccccc3)oc2C)cc1)c1ccc(Oc2ccccc2)cc1 | 118 to 119 °C
50 | C#CCOC(=O)C(C#N)=C(SC)SC | 77 to 79 °C

Row | SMILES | melting point
51 | COP(=O)(OC)[C@H](C)NC(=O)[C@H](C)NC(=O)CNC(=O)CNC(=O)OCc1ccccc1 | 124 to 127 °C
52 | COc1ccc(OC)c2c(Nc3ccc(Cl)cc3F)c(C#N)cnc12 | 197 to 199 °C
53 | CCOC(=O)N1c2cc(OC)c(OC)cc2C(=O)C(=CN(C)C)C1C (stereo not drawn) | 130 to 131 °C
54 | O=C(Nc1ccccc1)N1C(=O)C2(CCCCC2)N(O)C12CCCCC2 | 125 to 128 °C
55 | COC(C)OC(=O)C1CC(=O)N(c2ccc(C(C)(C)C)cc2)C1 (stereo not drawn) | 60 to 61 °C
56 | CC(C)(C)c1noc(-c2ncn3c2[C@@H]2CCCN2C(=O)c2c(Cl)cccc2-3)n1 | 222 to 224 °C
57 | Fc1ccc(Cn2c(SC3CCNCC3)nc3cncnc32)cc1 | 114 °C
58 | CCCCCCCCCCc1ccc2cc(SC)c(O)cc2c1 | 64.4 to 65.4 °C
59 | COC(=O)C1c2ccccc2C(=O)N(CC(F)(F)F)C1c1cn[nH]c1 (stereo not drawn) | 161 to 162 °C
60 | COCCn1c2cc(CCO)c(OC)cc2c2c3c(c(-c4ccccc4Cl)cc21)C(=O)NC3=O | 271 to 273 °C
61 | CCOC(=O)Cc1cnc(N=C2SCC3Cc4ccccc4CN23)s1 (stereo not drawn) | 132 °C
62 | CCCCc1ncc(Sc2ccccc2C(=O)O)n1Cc1ccc(C(=O)O)cc1 | 260 to 262 °C
63 | CC(C)CNC(=O)COC1c2ccccc2C(=O)N1c1ccc2ccc(Cl)nc2n1 (stereo not drawn) | 146 °C
64 | COC(=O)C1=C(C)NC(C)=C(C(=O)OCCN2CCN(C(c3ccccc3)c3ccccc3)CC2)C1c1cccc(Cl)c1 (stereo not drawn) | 74 to 80 °C
65 | N#Cc1ccc(C(=O)N2CCc3c(n(Cc4cccc(C#N)c4)c4ccccc34)C2)cc1 | 178 to 180 °C
66 | O=C(CCC(=O)N1CCC(c2ccc(Cl)cc2)CC1)c1ccc2c(c1)CCN(CC1CCCCC1)CC2 | 140 to 141 °C
67 | N#Cc1c(-c2ccccc2)cc(Cl)nc1Cl | 167 to 169 °C
68 | Oc1cc(-c2cccc(C(F)(F)F)c2)nc2ccnn12 | 305 to 310 °C
69 | CN(C)C1(c2ccc(F)cc2)CCC(=O)CC1 | 128 to 133 °C
70 | Cn1c(Nc2cccc(C(F)(F)F)c2)nc2c(-c3cccc(C(=O)NCCO)c3)cccc21 | 235 to 236 °C
71 | COC(=O)c1c(C)n(-c2ccc(Cl)cc2)c(C)cc1=O | 189 to 190 °C
72 | c1csc(-c2noc(COc3ccc(CCCCn4ccnc4)cc3)n2)c1 | 94 to 95 °C
73 | CN1CCN(C(=O)OC2c3ccccc3C(=O)N2c2ccc3cccnc3n2)CC1 (stereo not drawn) | 183 °C
74 | O=c1ccoc(C=Cc2ccc(O)cc2)c1 | 198 to 201 °C
75 | CC(C)(C)OC(=O)N1CCN(c2nccc(Oc3ccc(NC(=O)c4cc(F)cc(N5CCOCC5)c4)c4ccccc34)n2)CC1 | 131 to 133 °C

Row | SMILES | melting point
76 | OCc1ncc2n1-c1ccc(Cl)cc1C(c1ccccc1F)=NC2 | 258 to 260 °C
77 | CS(=O)(=O)Nc1ccc2ccccc2c1-c1c(P(=O)(c2ccccc2)c2ccccc2)ccc2ccccc12 | 282 °C
78 | Fc1ccccc1-c1ccc2cccnc2n1 | 111 to 114 °C
79 | Fc1cc(F)c2nc(CCC#Cc3ccccn3)cn2c1 | 130 to 131 °C
80 | COc1ccc(CNc2nc(N)n3nc(-c4ccco4)nc3n2)cc1 | 238 to 239 °C
81 | COc1sc(C)c(CO)c1C | 55 to 60 °C
82 | COc1ccccc1N1CCN(CC=CCN)CC1 | 63 to 67 °C
83 | CC(=O)NC1CCC2=C(CC1)C(=O)C(=CC(=O)O)C=C2 (stereo not drawn) | 240 to 243 °C
84 | COc1cc(C(=O)O)ccc1Cc1c(Cl)n(C)c2cc(Cl)c(CC(C)NC(=O)N(C)C)cc12 (stereo not drawn) | 125 to 135 °C
85 | OCc1ccc2nc3c(cc2c1)-c1cccc2cccc-3c12 | 215 to 218 °C
86 | O=C1CN(c2cccc(Cl)c2)C(=O)N1S(=O)(=O)c1ccc2ccccc2c1 | 194 to 198 °C
87 | O=C(OC(c1ccccc1)c1ccccc1)C(NC=S)c1ccccc1 (stereo not drawn) | 129 to 130 °C
88 | O=C(Nc1ccc(-n2nc(C(F)(F)F)cc2C(F)(F)F)cc1)c1ccoc1 | 206 to 207 °C
89 | CCOC(=O)C1=C(C)NC(CCN(C)C)=C(C(=O)OCC)C1c1ccccc1/C=C/C(=O)OC(C)(C)C (stereo not drawn) | 150 to 151 °C
90 | CC(C)(C)C(O)C(Oc1ccc(Cl)cc1)n1ccnc1 (stereo not drawn) | 145 to 147 °C
91 | CC(=O)SCC(Cc1ccccc1)C(=O)NC1(C(=O)OCc2ccccc2)CCCCC1 (stereo not drawn) | 166 to 168 °C
92 | CCC(c1oc2ccccc2c(=O)c1-c1cccc(F)c1)n1cnc2c(N)ncnc21 (stereo not drawn) | 102 to 107 °C
93 | CC(C)(C)[Si](C)(C)C(F)(F)F | 52 to 54 °C
94 | CN(C)CCCC(C(=O)O)c1ccccc1-c1ccccc1 (stereo not drawn) | 192 to 194 °C
95 | Cc1cc(NC(=O)CC#N)nc(C)n1 | 178 °C
96 | COc1ccc(C(O)CNCCN)cc1 (stereo not drawn) | 68 °C
97 | N#Cc1c[nH]c2cc3ccccc3cc2c1=O | > 260 °C
98 | Cc1cc(SC#N)c(C(C)C)cc1O | 72 to 75 °C
